Data published in publication PMC4415882 (Biochemistry, 2013).

Tests used:
[1] = molecular target: NPP (nucleotide pyrophosphatase/phosphodiesterase) (Xanthomonas citri, UniProt A0A0U5FM15, T90S); conditions: read-out: average; average over substrates pNPP, Me-pNPP, bis-pNPP, dT-5'-pNPP (subsaturating); 0.1 M Tris-HCl pH 8.0, 0.5 M NaCl, 100 µM ZnCl2, 25 °C; competitive
[2] = molecular target: NPP (nucleotide pyrophosphatase/phosphodiesterase) (Xanthomonas citri, UniProt A0A0U5FM15, L123A); conditions: read-out: average; average over substrates pNPP, Me-pNPP, bis-pNPP, dT-5'-pNPP (subsaturating); 0.1 M Tris-HCl pH 8.0, 0.5 M NaCl, 100 µM ZnCl2, 25 °C; competitive

SMILES: [O]=[V]([OH])([OH])[OH] [vanadate]
- Ki [1]: 340 ± 140 µM
- Ki [2]: 154 ± 8 µM
